PubChem BioAssay AID1963851 (Molecular Pharmacology Branch, DTP, NCI, 2024)

Test system: 188146-221-R-J1-PDC complex spheroid viability
Experiment: Anticancer human tumor 188146-221-R-J1-PDC patient-derived colon adenocarcinoma cell line growth inhibition [POLQ]
Conditions: for IC50: curve of first compound; for viability, T/C: stronger effect = lower value
How it was run: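 Patient-derived tumour cells were co-cultured with HUVEC and mesenchymal stem cells as multicellular spheroids at 37 °C. They were treated with POLQ inhibitors (novobiocin, ART-558, RP6685) alone or combined with other agents. Top concentrations were at or near clinical Cmax (otherwise 10 microM; SN-38 at 1 microM), decreasing in half-log steps.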

[1] = second compound 0.0316 µM, first compound 0.0316 µM
[2] = second compound 0.0316 µM, first compound 0.1 µM
[3] = second compound 0.0316 µM, first compound 0.316 µM
[4] = second compound 0.0316 µM, first compound 1 µM
[5] = second compound 0.0316 µM, first compound 3.16 µM
[6] = second compound 0.0316 µM, first compound 10 µM
[7] = second compound 0.1 µM, first compound 0.0316 µM
[8] = second compound 0.1 µM, first compound 0.1 µM
[9] = second compound 0.1 µM, first compound 0.316 µM
[10] = second compound 0.1 µM, first compound 1 µM
[11] = second compound 0.1 µM, first compound 3.16 µM
[12] = second compound 0.1 µM, first compound 10 µM
[13] = second compound 0.316 µM, first compound 0.0316 µM
[14] = second compound 0.316 µM, first compound 0.1 µM
[15] = second compound 0.316 µM, first compound 0.316 µM
[16] = second compound 0.316 µM, first compound 1 µM
[17] = second compound 0.316 µM, first compound 3.16 µM
[18] = second compound 0.316 µM, first compound 10 µM
[19] = second compound 1 µM, first compound 0.0316 µM
[20] = second compound 1 µM, first compound 0.1 µM
[21] = second compound 1 µM, first compound 0.316 µM
[22] = second compound 1 µM, first compound 1 µM
[23] = second compound 1 µM, first compound 3.16 µM
[24] = second compound 1 µM, first compound 10 µM
[25] = second compound 3.16 µM, first compound 0.0316 µM
[26] = second compound 3.16 µM, first compound 0.1 µM
[27] = second compound 3.16 µM, first compound 0.316 µM
[28] = second compound 3.16 µM, first compound 1 µM
[29] = second compound 3.16 µM, first compound 3.16 µM
[30] = second compound 3.16 µM, first compound 10 µM
[31] = second compound 10 µM, first compound 0.0316 µM
[32] = second compound 10 µM, first compound 0.1 µM
[33] = second compound 10 µM, first compound 0.316 µM
[34] = second compound 10 µM, first compound 1 µM
[35] = second compound 10 µM, first compound 3.16 µM
[36] = second compound 10 µM, first compound 10 µM
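Further: spheroids exposed to compounds for seven days.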
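Wherever viability, T/C is given: 100% = DMSO vehicle control viability.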

`CC1COCCN1c1cc(C2(S(C)(=N)=O)CC2)nc(-c2ccnc3[nH]ccc23)n1` (stereo not drawn) + COC1C(OC(N)=O)C(O)C(Oc2ccc3c(O)c(NC(=O)c4ccc(O)c(CC=C(C)C)c4)c(=O)oc3c2C)OC1(C)C gave an IC50 (second compound 0.0316 µM) of 4200 nM, an IC50 (second compound 0.1 µM) of 4040 nM and an IC50 (second compound 0.316 µM) of 4050 nM. The IC50 (second compound 1 µM) was 4530 nM, the IC50 (second compound 3.16 µM) was 3450 nM and the IC50 (second compound 10 µM) was 3160 nM. It also gave a viability, T/C [1] of 102%, a viability, T/C [2] of 95.8% and a viability, T/C [3] of 98.7%. It also gave a viability, T/C [4] of 94.2%, a viability, T/C [5] of 58.6% and a viability, T/C [6] of 23.6%. The viability, T/C [7] was 114%, the viability, T/C [8] was 100% and the viability, T/C [9] was 90.5%. It also gave a viability, T/C [10] of 72.5%, a viability, T/C [11] of 62.2% and a viability, T/C [12] of 26.8%. The viability, T/C [13] was 96.2%, the viability, T/C [14] was 97.3% and the viability, T/C [15] was 94.7%. For the same molecule, the viability, T/C [16] was 84.8%, the viability, T/C [17] was 56.4% and the viability, T/C [18] was 27%. It also gave a viability, T/C [19] of 97.1%, a viability, T/C [20] of 104% and a viability, T/C [21] of 88.6%. The viability, T/C [22] was 87.1%, the viability, T/C [23] was 61.2% and the viability, T/C [24] was 23.9%. For the same molecule, the viability, T/C [25] was 101%, the viability, T/C [26] was 100% and the viability, T/C [27] was 84.2%. The viability, T/C [28] was 69.4%, the viability, T/C [29] was 54% and the viability, T/C [30] was 26.8%. For the same molecule, the viability, T/C [31] was 102%, the viability, T/C [32] was 88.8% and the viability, T/C [33] was 103%. For the same molecule, the viability, T/C [34] was 74.5%, the viability, T/C [35] was 51.9% and the viability, T/C [36] was 24%.
For `CC(C)n1c(=O)n(C)c2cnc3cc(F)c(-c4ccc(OCCCN5CCCCC5)nc4)cc3c21` + Nc1ccc(C#CCN(C(=O)Cc2ncc(C(F)(F)F)cc2C(F)(F)F)c2ccc(F)cc2)nn1, the IC50 (second compound 0.0316 µM) was over 10000 nM, the IC50 (second compound 0.1 µM) was over 10000 nM and the IC50 (second compound 0.316 µM) was over 10000 nM. It also gave an IC50 (second compound 1 µM) of over 10000 nM, an IC50 (second compound 3.16 µM) of over 10000 nM and an IC50 (second compound 10 µM) of over 10000 nM. It also gave a viability, T/C [1] of 87.3%, a viability, T/C [2] of 106% and a viability, T/C [3] of 95.4%. For the same molecule, the viability, T/C [4] was 97.9%, the viability, T/C [5] was 83.6% and the viability, T/C [6] was 80.7%. The viability, T/C [7] was 101%, the viability, T/C [8] was 107% and the viability, T/C [9] was 94.9%. The viability, T/C [10] was 92.2%, the viability, T/C [11] was 92.6% and the viability, T/C [12] was 83.7%. The viability, T/C [13] was 94.8%, the viability, T/C [14] was 94.7% and the viability, T/C [15] was 89.4%. It also gave a viability, T/C [16] of 96.8%, a viability, T/C [17] of 103% and a viability, T/C [18] of 80.9%. It also gave a viability, T/C [19] of 104%, a viability, T/C [20] of 101% and a viability, T/C [21] of 88%. The viability, T/C [22] was 88.9%, the viability, T/C [23] was 93.7% and the viability, T/C [24] was 86.9%. It also gave a viability, T/C [25] of 99%, a viability, T/C [26] of 98.3% and a viability, T/C [27] of 99.5%. For the same molecule, the viability, T/C [28] was 84.2%, the viability, T/C [29] was 95.3% and the viability, T/C [30] was 87.8%. It also gave a viability, T/C [31] of 105%, a viability, T/C [32] of 95.5% and a viability, T/C [33] of 98.4%. It also gave a viability, T/C [34] of 96.6%, a viability, T/C [35] of 97.9% and a viability, T/C [36] of 84.1%.
`CC1COCCN1c1cc(C2(O)CC3CCC(C2)O3)c2cnn(-c3ccn[nH]3)c2n1` (stereo not drawn) + Nc1ccc(C#CCN(C(=O)Cc2ncc(C(F)(F)F)cc2C(F)(F)F)c2ccc(F)cc2)nn1 showed an IC50 (second compound 0.0316 µM) of 328 nM, an IC50 (second compound 0.1 µM) of 350 nM and an IC50 (second compound 0.316 µM) of 249 nM. For the same molecule, the IC50 (second compound 1 µM) was 288 nM, the IC50 (second compound 3.16 µM) was 289 nM and the IC50 (second compound 10 µM) was 209 nM. The viability, T/C [1] was 88.7%, the viability, T/C [2] was 76.8% and the viability, T/C [3] was 49.4%. For the same molecule, the viability, T/C [4] was 27%, the viability, T/C [5] was 18.9% and the viability, T/C [6] was 8.36%. For the same molecule, the viability, T/C [7] was 109%, the viability, T/C [8] was 77.2% and the viability, T/C [9] was 54.2%. The viability, T/C [10] was 29.2%, the viability, T/C [11] was 18% and the viability, T/C [12] was 8.08%. It also gave a viability, T/C [13] of 105%, a viability, T/C [14] of 72.1% and a viability, T/C [15] of 44.2%. For the same molecule, the viability, T/C [16] was 24.3%, the viability, T/C [17] was 17% and the viability, T/C [18] was 7.87%. For the same molecule, the viability, T/C [19] was 95.8%, the viability, T/C [20] was 70.5% and the viability, T/C [21] was 52%. The viability, T/C [22] was 24.3%, the viability, T/C [23] was 15.6% and the viability, T/C [24] was 8.87%. The viability, T/C [25] was 89.9%, the viability, T/C [26] was 80.7% and the viability, T/C [27] was 43.9%. For the same molecule, the viability, T/C [28] was 26%, the viability, T/C [29] was 18.2% and the viability, T/C [30] was 7.84%. The viability, T/C [31] was 87.7%, the viability, T/C [32] was 66% and the viability, T/C [33] was 41.4%. For the same molecule, the viability, T/C [34] was 21.1%, the viability, T/C [35] was 18.1% and the viability, T/C [36] was 7.06%.
`COc1cc(C2c3cc4c(cc3C(OC3OC5COC(C)OC5C(O)C3O)C3COC(=O)C23)OCO4)cc(OC)c1O` (stereo not drawn) + Nc1ccc(C#CCN(C(=O)Cc2ncc(C(F)(F)F)cc2C(F)(F)F)c2ccc(F)cc2)nn1 showed an IC50 (second compound 0.0316 µM) of 597 nM, an IC50 (second compound 0.1 µM) of 789 nM and an IC50 (second compound 0.316 µM) of 582 nM. The IC50 (second compound 1 µM) was 626 nM, the IC50 (second compound 3.16 µM) was 625 nM and the IC50 (second compound 10 µM) was 633 nM. The viability, T/C [1] was 87.2%, the viability, T/C [2] was 95.2% and the viability, T/C [3] was 61.4%. The viability, T/C [4] was 40.7%, the viability, T/C [5] was 24.9% and the viability, T/C [6] was 22.9%. For the same molecule, the viability, T/C [7] was 89.5%, the viability, T/C [8] was 87.3% and the viability, T/C [9] was 65.9%. It also gave a viability, T/C [10] of 48.2%, a viability, T/C [11] of 27.7% and a viability, T/C [12] of 28.5%. The viability, T/C [13] was 97.1%, the viability, T/C [14] was 97.8% and the viability, T/C [15] was 66.3%. For the same molecule, the viability, T/C [16] was 35.5%, the viability, T/C [17] was 25% and the viability, T/C [18] was 21.4%. The viability, T/C [19] was 97.5%, the viability, T/C [20] was 79.3% and the viability, T/C [21] was 67.6%. It also gave a viability, T/C [22] of 39.4%, a viability, T/C [23] of 24.6% and a viability, T/C [24] of 22.2%. The viability, T/C [25] was 100%, the viability, T/C [26] was 88.5% and the viability, T/C [27] was 64.2%. The viability, T/C [28] was 40.7%, the viability, T/C [29] was 27.1% and the viability, T/C [30] was 25%. The viability, T/C [31] was 86.8%, the viability, T/C [32] was 78.4% and the viability, T/C [33] was 58.8%. For the same molecule, the viability, T/C [34] was 47.4%, the viability, T/C [35] was 25% and the viability, T/C [36] was 29%.
